Reference: patent US20220016277A1, “MACROCYCLIC COMPLEXES OF RADIONUCLIDES AND THEIR USE IN RADIOTHERAPY OF CANCER” (Cornell University, priority 2018, published 2022)

Test: Organ distribution of ^225Ac complexes following intravenous injection in mice
Format: in vivo, C57BL/6 mice
Protocol: In Vivo Biodistribution of ^225Ac Complexes of Macropa and DOTA. All experiments were approved by the Institutional Animal Care Committee (IACC) of the University of British Columbia and were performed in accordance with the Canadian Council on Animal Care Guidelines. A total of 9 female C57BL/6 mice (6-8 weeks old, 20-25 g) were used for the biodistribution study of each radiometal complex, n=3 for each time point.
Macropa (100 μL of a 1 mg/mL solution in NH4OAc) was diluted with 387 μL of NH4OAc (1 M, pH 7), and an aliquot (203 μL) of ^225Ac(NO3)3 (˜157 kBq) was then added; the pH of this solution was adjusted to 6.5-7 by the addition of 1 M NaOH (210 μL, trace metal grade). After 5 min at ambient temperature, the reaction solution was analyzed by TLC (0.4 M pH 4 sodium citrate as the eluent), which confirmed >95% radiochemical yield. The reaction was allowed to proceed overnight, and the radiochemical yield was again confirmed to be >95% the following morning. At this time, mice were anesthetized by 2% isoflurane, and approximately 100 μL (10-15 kBq) of the [^225Ac(macropa)]^+ complex were injected into the tail vein of each mouse. After injection, mice were allowed to recover and roam freely in their cages, and were euthanized by CO2 inhalation at 15 min, 1 h, or 5 h (n=3 at each time point) post-injection. Blood was collected by cardiac puncture and placed into an appropriate test tube for scintillation counting. Tissues collected included heart, liver, kidneys, lungs, small intestine, large intestine, brain, bladder, spleen, stomach, pancreas, bone, thyroid, tail, urine, and feces. Tissues were weighed and then counted with a calibrated gamma counter (Packard, Cobra II model 5002) using three energy windows: 60-120 keV (window A), 180-260 keV (window B), and 400-480 keV (window C). Counting was performed both immediately after sacrifice and after 7 days; counts were decay corrected from the time of injection and then converted to the percentage of injected dose (% ID) per gram of tissue (% ID/g). […]
The biodistribution studies of [^225Ac(DOTA)]^− and ^225Ac(NO3)3 were carried out as described above for [^225Ac(macropa)]^+, with the following modifications. [^225Ac(DOTA)^− was prepared by adding ^225Ac(NO3)3 (338 μL, 1.1 MBq) to a solution of DOTA (100 μg, 20 mg/mL in H2O) in NH4OAc (467 μL, 0.15 M, pH 7). The pH of the solution was adjusted to 7 using NH4OAc (150 μL, 1 M, pH 7) and the solution was heated at 85° C. for 45 min. RCY >99% was confirmed by TLC as described above. [^225Ac(DOTA)]^− was diluted with saline to a final concentration of 0.05 MBq/100 μL, and 100 μL were injected into each mouse. ^225Ac(NO3)3 (˜58 μL, 0.4 MBq) was diluted and injected in the same manner as [^225Ac(DOTA)]^−. One mouse that was to be euthanized at the 5 h time point in the [^225Ac(DOTA)]^− study died shortly after injection. In the same manner, one mouse that was to be euthanized at the 1 h time point in the ^225Ac(NO3)3 study died.
The in vivo stability [^225Ac(macropa)]^+ was examined by comparing its biodistribution to those of ^225Ac(NO3)3 and [^225Ac(DOTA)]^−. C57BL/6 mice were injected via tail vein with 10-50 kBq of each radiometal complex and were sacrificed after 15 min, 1 h, or 5 h. The amount of ^225Ac retained in each organ was quantified by gamma counting and reported as the percent of injected dose per gram of tissue (% ID/g). The results of these studies are compiled in Tables 1-3. Inadequate stability of an ^225Ac complex leading to the loss of radioisotope in vivo is manifested by the accumulation of ^225Ac in the liver, spleen, and bone of mice.^[11,12,32] […] The biodistribution profile of [^225Ac(macropa)]^+ (FIG. 3B) differs markedly from that of ^225Ac(NO3)3. […] Its biodistribution profile was similar to that of [^225Ac(DOTA)]^− (FIG. 3C), which has been previously shown to retain ^225Ac^3+ in vivo.^[7]

[1] = 15 min post i.v. injection, energy window A (60-120 keV)
[2] = 15 min post i.v. injection, energy window B (180-260 keV)
[3] = 15 min post i.v. injection, energy window C (400-480 keV)
[4] = 1 h post i.v. injection, energy window A (60-120 keV)
[5] = 1 h post i.v. injection, energy window B (180-260 keV)
[6] = 1 h post i.v. injection, energy window C (400-480 keV)
[7] = 5 h post i.v. injection, energy window A (60-120 keV)
[8] = 5 h post i.v. injection, energy window B (180-260 keV)
[9] = 5 h post i.v. injection, energy window C (400-480 keV)
[10] = C57BL/6 mice, i.v., 15 min to 5 h

Compound: O=C([O-])c1cccc(CN2CCOCCOCCN(Cc3cccc(C(=O)[O-])n3)CCOCCOCC2)n1.[225Ac+3] [[^225Ac(macropa)]^+]
- Organ distribution: bladder [1]: 46.74 % ID/g
- Organ distribution: blood [1]: 5.11 % ID/g
- Organ distribution: bone (femur + joint) [1]: 2.52 % ID/g
- Organ distribution: brain [1]: 0.26 % ID/g
- Organ distribution: feces [1]: 0.91 % ID/g
- Organ distribution: heart [1]: 2.19 % ID/g
- Organ distribution: kidneys [1]: 27.55 % ID/g
- Organ distribution: large intestines [1]: 2.40 % ID/g
- Organ distribution: liver [1]: 2.28 % ID/g
- Organ distribution: lungs [1]: 5.98 % ID/g
- Organ distribution: pancreas [1]: 1.46 % ID/g
- Organ distribution: small intestines [1]: 2.64 % ID/g
- Organ distribution: spleen [1]: 2.52 % ID/g
- Organ distribution: stomach [1]: 2.97 % ID/g
- Organ distribution: tail [1]: 8.84 % ID/g
- Organ distribution: thyroids [1]: 28.23 % ID/g
- Organ distribution: urine [1]: 1378.82 % ID/g
- Organ distribution: bladder [2]: 47.64 % ID/g
- Organ distribution: blood [2]: 5.23 % ID/g
- Organ distribution: bone (femur + joint) [2]: 2.69 % ID/g
- Organ distribution: brain [2]: 0.23 % ID/g
- Organ distribution: feces [2]: 1.04 % ID/g
- Organ distribution: heart [2]: 2.39 % ID/g
- Organ distribution: kidneys [2]: 27.86 % ID/g
- Organ distribution: large intestines [2]: 2.53 % ID/g
- Organ distribution: liver [2]: 2.17 % ID/g
- Organ distribution: lungs [2]: 5.83 % ID/g
- Organ distribution: pancreas [2]: 1.63 % ID/g
- Organ distribution: small intestines [2]: 2.59 % ID/g
- Organ distribution: spleen [2]: 2.55 % ID/g
- Organ distribution: stomach [2]: 3.29 % ID/g
- Organ distribution: tail [2]: 9.39 % ID/g
- Organ distribution: thyroids [2]: −2.22 % ID/g
- Organ distribution: urine [2]: 1541.60 % ID/g
- Organ distribution: bladder [3]: 64.68 % ID/g
- Organ distribution: blood [3]: 6.49 % ID/g
- Organ distribution: bone (femur + joint) [3]: 3.74 % ID/g
- Organ distribution: brain [3]: 0.17 % ID/g
- Organ distribution: feces [3]: 1.26 % ID/g
- Organ distribution: heart [3]: 2.87 % ID/g
- Organ distribution: kidneys [3]: 33.46 % ID/g
- Organ distribution: large intestines [3]: 3.02 % ID/g
- Organ distribution: liver [3]: 2.72 % ID/g
- Organ distribution: lungs [3]: 7.55 % ID/g
- Organ distribution: pancreas [3]: 3.00 % ID/g
- Organ distribution: small intestines [3]: 3.46 % ID/g
- Organ distribution: spleen [3]: 3.79 % ID/g
- Organ distribution: stomach [3]: 3.45 % ID/g
- Organ distribution: tail [3]: 11.75 % ID/g
- Organ distribution: thyroids [3]: −6.46 % ID/g
- Organ distribution: urine [3]: 2387.66 % ID/g
- Organ distribution: bladder [4]: 6.23 % ID/g
- Organ distribution: blood [4]: 0.40 % ID/g
- Organ distribution: bone (femur + joint) [4]: 0.31 % ID/g
- Organ distribution: brain [4]: 0.12 % ID/g
- Organ distribution: feces [4]: 0.28 % ID/g
- Organ distribution: heart [4]: 0.31 % ID/g
- Organ distribution: kidneys [4]: 13.36 % ID/g
- Organ distribution: large intestines [4]: 0.36 % ID/g
- Organ distribution: liver [4]: 0.75 % ID/g
- Organ distribution: lungs [4]: 0.51 % ID/g
- Organ distribution: pancreas [4]: 0.19 % ID/g
- Organ distribution: small intestines [4]: 1.10 % ID/g
- Organ distribution: spleen [4]: 0.51 % ID/g
- Organ distribution: stomach [4]: 0.41 % ID/g
- Organ distribution: tail [4]: 1.82 % ID/g
- Organ distribution: thyroids [4]: 3.18 % ID/g
- Organ distribution: urine [4]: 489.11 % ID/g
- Organ distribution: bladder [5]: 5.92 % ID/g
- Organ distribution: blood [5]: 0.39 % ID/g
- Organ distribution: bone (femur + joint) [5]: 0.17 % ID/g
- Organ distribution: brain [5]: 0.12 % ID/g
- Organ distribution: feces [5]: 0.27 % ID/g
- Organ distribution: heart [5]: 0.20 % ID/g
- Organ distribution: kidneys [5]: 12.97 % ID/g
- Organ distribution: large intestines [5]: 0.22 % ID/g
- Organ distribution: liver [5]: 0.70 % ID/g
- Organ distribution: lungs [5]: 0.54 % ID/g
- Organ distribution: pancreas [5]: 0.12 % ID/g
- Organ distribution: small intestines [5]: 0.94 % ID/g
- Organ distribution: spleen [5]: 0.23 % ID/g
- Organ distribution: stomach [5]: 0.33 % ID/g
- Organ distribution: tail [5]: 1.82 % ID/g
- Organ distribution: thyroids [5]: 0.10 % ID/g
- Organ distribution: urine [5]: 517.19 % ID/g
- Organ distribution: bladder [6]: 9.00 % ID/g
- Organ distribution: blood [6]: 0.54 % ID/g
- Organ distribution: bone (femur + joint) [6]: 0.70 % ID/g
- Organ distribution: brain [6]: 0.23 % ID/g
- Organ distribution: feces [6]: 0.69 % ID/g
- Organ distribution: heart [6]: 0.23 % ID/g
- Organ distribution: kidneys [6]: 17.38 % ID/g
- Organ distribution: large intestines [6]: 0.79 % ID/g
- Organ distribution: liver [6]: 1.08 % ID/g
- Organ distribution: lungs [6]: 0.84 % ID/g
- Organ distribution: pancreas [6]: 0.43 % ID/g
- Organ distribution: small intestines [6]: 1.62 % ID/g
- Organ distribution: spleen [6]: 0.48 % ID/g
- Organ distribution: stomach [6]: 0.17 % ID/g
- Organ distribution: tail [6]: 2.57 % ID/g
- Organ distribution: thyroids [6]: 8.34 % ID/g
- Organ distribution: urine [6]: 641.63 % ID/g
- Organ distribution: bladder [7]: 4.25 % ID/g
- Organ distribution: blood [7]: 0.01 % ID/g
- Organ distribution: bone (femur + joint) [7]: 0.05 % ID/g
- Organ distribution: brain [7]: 0.02 % ID/g
- Organ distribution: feces [7]: 3.46 % ID/g
- Organ distribution: heart [7]: 0.10 % ID/g
- Organ distribution: kidneys [7]: 0.74 % ID/g
- Organ distribution: large intestines [7]: 0.49 % ID/g
- Organ distribution: liver [7]: 0.39 % ID/g
- Organ distribution: lungs [7]: 0.01 % ID/g
- Organ distribution: pancreas [7]: 0.10 % ID/g
- Organ distribution: small intestines [7]: 0.29 % ID/g
- Organ distribution: spleen [7]: 0.11 % ID/g
- Organ distribution: stomach [7]: 0.01 % ID/g
- Organ distribution: tail [7]: 0.14 % ID/g
- Organ distribution: thyroids [7]: 0.10 % ID/g
- Organ distribution: urine [7]: 12.78 % ID/g
- Organ distribution: bladder [8]: 3.69 % ID/g
- Organ distribution: blood [8]: 0.00 % ID/g
- Organ distribution: bone (femur + joint) [8]: 0.02 % ID/g
- Organ distribution: brain [8]: −0.01 % ID/g
- Organ distribution: feces [8]: 3.49 % ID/g
- Organ distribution: heart [8]: −0.04 % ID/g
- Organ distribution: kidneys [8]: 0.78 % ID/g
- Organ distribution: large intestines [8]: 0.45 % ID/g
- Organ distribution: liver [8]: 0.36 % ID/g
- Organ distribution: lungs [8]: −0.05 % ID/g
- Organ distribution: pancreas [8]: −0.12 % ID/g
- Organ distribution: small intestines [8]: 0.29 % ID/g
- Organ distribution: spleen [8]: 0.09 % ID/g
- Organ distribution: stomach [8]: 0.04 % ID/g
- Organ distribution: tail [8]: 0.13 % ID/g
- Organ distribution: thyroids [8]: −6.94 % ID/g
- Organ distribution: urine [8]: 13.51 % ID/g
- Organ distribution: bladder [9]: 8.52 % ID/g
- Organ distribution: blood [9]: 0.04 % ID/g
- Organ distribution: bone (femur + joint) [9]: 0.08 % ID/g
- Organ distribution: brain [9]: −0.01 % ID/g
- Organ distribution: feces [9]: 5.27 % ID/g
- Organ distribution: heart [9]: 0.28 % ID/g
- Organ distribution: kidneys [9]: 1.07 % ID/g
- Organ distribution: large intestines [9]: 0.68 % ID/g
- Organ distribution: liver [9]: 0.55 % ID/g
- Organ distribution: lungs [9]: 0.15 % ID/g
- Organ distribution: pancreas [9]: 0.13 % ID/g
- Organ distribution: small intestines [9]: 0.42 % ID/g
- Organ distribution: spleen [9]: 0.43 % ID/g
- Organ distribution: stomach [9]: 0.13 % ID/g
- Organ distribution: tail [9]: 0.28 % ID/g
- Organ distribution: thyroids [9]: 19.89 % ID/g
- Organ distribution: urine [9]: 22.27 % ID/g
- blood clearance and excretion (in words) [10]: rapidly cleared from mice
- organ accumulation (in words) [10]: did not accumulate in any organ
